{
  "source": "patent US4482548A",
  "about": "“Analgesic pharmaceutical compositions containing 5-phenyl-1,4-benzo diazepine compounds and a method of using same” (Kali-Chemie Pharma GmbH, priority 1982, dated 1984)",
  "key": {"[1]": {"system": "arthritis pain in rats", "experiment": "Arthritis pain test on rats (suppression of the arthritis pain in rats)", "format": "in vivo, male rats of the OFA strain", "settings": "Rattus norvegicus, po, 3 h after administration; dosage protecting 50% of the treated animals against pain", "protocol": "(§1) Such tests, for instance, compare the pain allaying effect of the test compound in the arthritis pain test with the sedative and muscle relaxing effects which impair the normal activity of rats.\n1. Arthritis pain test on rats.\nMale rats of the OFA strain, weighing between 160 g. and 180 g. are anesthetized by intraperitoneal administration of 20 mg./kg. of Pentobarbital Sodium. 0.1 ml. of a suspension of 0.6 mg. of Mycobacterium Smegmae (SI043) in paraffin oil are injected intracutaneously into the left hind paw of the rats. Fourteen days thereafter, when a pronounced secondary arthritis has developed especially in the right hind paw of the rats, the effects of the test compounds are investigated. For this purpose a control measurement is carried out thirty minutes before administration of the compound to be tested by deflecting three times the ankle joints of the right hind paws of the test animals and counting the number of distress sounds emitted by them. […] The ankle joint deflecting procedure is repeated three hours after oral administration of the compounds to be tested. Animals which emit distress sounds either only once or not at all are considered as being protected against pain. The dosage by which protection against pain is achieved in 50% of the treated animals is designated as the effective dosage ED50."}, "[2]": {"experiment": "Inhibition of the locomotion exploratory activity according to Janssen (suppression of the locomotor exploration activity on rats)", "set-up": "species or system male rats of the Sprague-Dawley type", "settings": "rat, in vivo, po, 1 h before test; dosage corresponding to 9 points for six pairs of rats", "excerpt": "as §1\n2. Determination of the inhibition of the locomotion exploratory activity according to the method described by Janssen in \"Psychopharmakologie\", vol. 1 (1961), pages 141-146.\nThe compound to be tested is orally administered in the form of a suspension in 2% Tylose solution to male rats of the Sprague-Dawley type one hour before starting the test. Six pairs of rats are used for each dosage to be administered. Each pair of rats is then placed into an environment which is entirely unknown to them. The locomotor activity of said rats with respect to the exploration and inquisitiveness phase within the first thirty seconds is observed and recorded by two observers. The observed activity is evaluated according to a point system. According to said system the highest possible number of points for six pairs of rats amounts to 18 points. That dosage which corresponds to 9 points for six pairs of rats is designated as ED50."}, "[3]": {"experiment": "Acute toxicity on mice", "settings": "mouse, in vivo, po, read-out: Acute toxicity on mice ED50"}},
  "data": [
    {"smiles": "CN1C(=O)CN=C(c2ccccc2)c2cc(Cl)ccc21", "note": "[Diazepam, 7-chloro-1-methyl-5-phenyl-1,3-dihydro-2H-1,4-benzo diazepin-2-one, reference compound]", "values": [
      {"measurement": "ED50", "setting": "[1]", "value": 6.2, "unit": "mg/kg"},
      {"measurement": "ED50 at 1 h", "setting": "[2]", "value": 11.5, "unit": "mg/kg"}
    ]},
    {"smiles": "COCC1CN=C(c2ccccc2Cl)c2cc(Br)ccc2N1C", "note": "(centres unmarked) [compound 1, 1-methyl-7-bromo-2-methoxy methyl-5-(2-chlorophenyl)-1H-2,3-dihydro-1,4-benzo diazepine]", "values": [
      {"measurement": "ED50", "setting": "[1]", "value": 4.8, "unit": "mg/kg"},
      {"measurement": "ED50 at 1 h", "setting": "[2]", "value": 56.2, "unit": "mg/kg"},
      {"measurement": "LD50", "setting": "[3]", "value": 2390, "unit": "mg/kg"}
    ]},
    {"smiles": "COCC1CN=C(c2ccccc2Cl)c2cc(Cl)ccc2N1C", "note": "(centres unmarked) [compound 2, 1-methyl-7-chloro-2-methoxy methyl-5-(2-chlorophenyl)-1H-2,3-dihydro-1,4-benzo diazepine]", "values": [
      {"measurement": "ED50", "setting": "[1]", "value": 10, "unit": "mg/kg"},
      {"measurement": "ED50 at 1 h", "setting": "[2]", "value": 55.5, "unit": "mg/kg"},
      {"measurement": "LD50", "setting": "[3]", "value": 1470, "unit": "mg/kg"}
    ]}
  ]
}
